Experimental data reported in US8415342B2, “Besifloxacin ophthalmic composition for the treatment or control of infection” (Bausch & Lomb Incorporated, priority 2008, dated 2013).
Values after ≈ are worked out from the molar mass of the structure shown. Like-named read-outs stand apart in the source and are kept apart here.

Key:
Type in all cases: cell-based
[1] = test system: Staphylococcus aureus; test: MIC, CLSI broth microdilution, clinical isolates; details: for MIC50 / MIC90: Staphylococcus aureus
[2] = test system: Staphylococcus epidermidis; test: MIC, CLSI broth microdilution, clinical isolates; details: for MIC50: Staphylococcus epidermidis
[3] = test system: Staphylococcus lugdunensis; test: MIC, CLSI broth microdilution, clinical isolates; details: Staphylococcus lugdunensis (N = 15)
[4] = test system: Staphylococcus saprophyticus; test: MIC, CLSI broth microdilution, clinical isolates; details: Staphylococcus saprophyticus (N = 101)
[5] = test system: Staphylococcus haemolyticus; test: MIC, CLSI broth microdilution, clinical isolates; details: Staphylococcus haemolyticus (N = 101)
[6] = test system: Staphylococcus warneri; test: MIC, CLSI broth microdilution, clinical isolates; details: Staphylococcus warneri (N = 50)
[7] = test system: Staphylococcus hominis; test: MIC, CLSI broth microdilution, clinical isolates; details: Staphylococcus hominis (N = 50)
[8] = test system: Moraxella catarrhalis; test: MIC, CLSI broth microdilution, clinical isolates; details: Moraxella catarrhalis (N = 101)
[9] = test system: Streptococcus agalactiae; test: MIC, CLSI broth microdilution, clinical isolates; details: Streptococcus agalactiae (N = 100)
[10] = test system: Streptococcus pneumoniae; test: MIC, CLSI broth microdilution, clinical isolates
[11] = test system: Streptococcus pyogenes; test: MIC, CLSI broth microdilution, clinical isolates; details: Streptococcus pyogenes (N = 101)
[12] = test system: Lancefield group C, F, G streptococci; test: MIC, CLSI broth microdilution, clinical isolates; details: G streptococci (N = 50)
[13] = test system: Viridans streptococci; test: MIC, CLSI broth microdilution, clinical isolates; details: Viridans streptococci (N = 156)
[14] = test system: Anaerobic Bacteria; test: MIC against anaerobic bacteria (Table 7); details: for % S (percent of susceptible isolates): CLSI breakpoints
[15] = test system: Citrobacter koseri; test: MIC, CLSI broth microdilution, clinical isolates; details: Citrobacter koseri (N = 100)
[16] = test system: Klebsiella oxytoca; test: MIC, CLSI broth microdilution, clinical isolates; details: Klebsiella oxytoca (N = 50)
[17] = test system: Morganella morganii; test: MIC, CLSI broth microdilution, clinical isolates; details: Morganella morganii (N = 51)
[18] = Staphylococcus aureus (CNS, N = 16)
[19] = Staphylococcus aureus (CS, N = 14)
[20] = Staphylococcus aureus (MSSA, N = 19)
[21] = Staphylococcus aureus (all phenotypes, N = 30)
[22] = MRSA, Staphylococcus aureus (MRSA, N = 11)
[23] = MSSA, Staphylococcus aureus (MSSA, N = 19)
[24] = Staphylococcus epidermidis (CNS, N = 6)
[25] = Staphylococcus epidermidis (CS, N = 9)
[26] = Staphylococcus epidermidis (MRSE, N = 9)
[27] = Staphylococcus epidermidis (MSSE, N = 6)
[28] = Staphylococcus epidermidis (all phenotypes, N = 15)
[29] = Streptococcus pneumoniae (PISP, N = 2)
[30] = Streptococcus pneumoniae (PSSP, N = 31)
[31] = Streptococcus pneumoniae (all phenotypes, N = 35)
[32] = Bacteroides fragilis, Bacteroides fragilis (N = 20), read-out: MIC50
[33] = Bacteroides fragilis, Bacteroides fragilis (N = 20), read-out: MIC90
[34] = Clostridium perfringens (N = 21)
[35] = Clostridium perfringens, Clostridium perfringens (N = 21)
[36] = Fusobacterium spp. (N = 21), read-out: MIC50
[37] = Fusobacterium spp. (N = 21), read-out: MIC90
[38] = Propionibacterium acnes (N = 21)

With `Cc1onc(-c2ccccc2)c1C(=O)N[C@@H]1C(=O)N2[C@@H]1SC(C)(C)[C@@H]2C(=O)O` [Oxacillin] the “% S” value [1, 18] was 50.0%, the “% S” value [1, 19] was 78.6% and the “% S” value ([1]; Staphylococcus aureus (MRSA, N = 11)) was 0.0%. The “% S” value [1, 20] was 100.0%, the “MIC Range” value [1, 20] was 0.12 to 0.5 µg/mL and the “% S” value [1, 21] was 63.3%. For the same molecule, the MIC50 [1, 22] was over 8 µg/mL, the MIC90 [1, 22] was over 8 µg/mL and the MIC50 [1, 23] was 0.25 µg/mL (≈ 0.623 µM). It also gave an MIC90 [1, 23] of 0.5 µg/mL (≈ 1.25 µM), an MIC50 [1, 18] of 0.5 µg/mL (≈ 1.25 µM) and an MIC90 [1, 18] of over 8 µg/mL. The MIC50 [1, 19] was 0.25 µg/mL (≈ 0.623 µM), the MIC90 [1, 19] was over 8 µg/mL and the MIC50 [1, 21] was 0.25 µg/mL (≈ 0.623 µM). The MIC90 [1, 21] was over 8 µg/mL, the “% S” value [2, 24] was 50.0% and the “MIC Range” value [2, 24] was 0.12 to 4 µg/mL. For the same molecule, the “% S” value [2, 25] was 55.6%, the “MIC Range” value [2, 25] was “≦0.06-2 μg/mL” and the “% S” value [2, 26] was 0.0%. For the same molecule, the “MIC Range” value [2, 26] was 1 to 4 µg/mL, the “% S” value [2, 27] was 100.0% and the “MIC Range” value [2, 27] was “≦0.06-0.12 μg/mL”. For the same molecule, the “% S” value [2, 28] was 40.0%, the MIC90 [2, 28] was 2 µg/mL (≈ 4.98 µM) and the “MIC Range” value [2, 28] was “≦0.06-4 μg/mL”. For the same molecule, the MIC50 ([2]; MRSE, Staphylococcus epidermidis (MRSE, N = 9)) was 1 µg/mL (≈ 2.49 µM), the MIC50 [2, 24] was 1 µg/mL (≈ 2.49 µM) and the MIC50 [2, 25] was 0.12 µg/mL (≈ 0.299 µM). The MIC50 [2, 27] was at most 0.06 µg/mL, the MIC50 [2, 28] was 1 µg/mL (≈ 2.49 µM) and the “% S” value [3] was 60.0%. The MIC50 [3] was 0.5 µg/mL (≈ 1.25 µM), the MIC90 [3] was over 8 µg/mL and the “% S” value [4] was 9.9%. For the same molecule, the MIC50 [4] was 0.5 µg/mL (≈ 1.25 µM), the MIC90 [4] was 1 µg/mL (≈ 2.49 µM) and the “% S” value [5] was 31.7%. The MIC50 [5] was over 8 µg/mL, the MIC90 [5] was over 8 µg/mL and the “% S” value [6] was 46.0%. The MIC50 [6] was 0.5 µg/mL (≈ 1.25 µM), the MIC90 [6] was over 8 µg/mL and the “% S” value [7] was 16.0%. The MIC50 [7] was over 8 µg/mL, the MIC90 [7] was over 8 µg/mL and the MIC50 [8] was 4 µg/mL (≈ 9.96 µM). The MIC90 [8] was 8 µg/mL (≈ 19.9 µM).
In the case of Penicillin, the “% S” value [9] is reported as 100.0%, the MIC50 [9] is reported as 0.03 µg/mL and the MIC90 [9] is reported as 0.06 µg/mL. The “MIC Range” value [9] was “≦0.015-0.06 μg/mL”, the “% S” value [10, 29] was 0.0% and the “MIC Range” value [10, 29] was 4-4 μg/mL. For the same molecule, the “% S” value ([10]; Streptococcus pneumoniae (PRSP, N = 2)) was 0.0%, the “% S” value [10, 30] was 100.0% and the MIC50 [10, 30] was “≦0.015 μg/mL”. For the same molecule, the MIC90 [10, 30] was 0.25 µg/mL, the “MIC Range” value [10, 30] was “≦0.015-0.5 μg/mL” and the “% S” value [10, 31] was 88.6%. For the same molecule, the MIC50 [10, 31] was “≦0.015 μg/mL”, the MIC90 [10, 31] was 4 µg/mL and the “% S” value [11] was 100.0%. For the same molecule, the MIC50 [11] was “≦0.015 μg/mL”, the MIC90 [11] was “≦0.015 μg/mL” and the “MIC Range” value [11] was “≦0.015-0.06 μg/mL”. The “% S” value [12] was 100.0%, the MIC50 [12] was “≦0.015 μg/mL” and the MIC90 [12] was 0.06 µg/mL. The “MIC Range” value [12] was “≦0.015-0.06 μg/mL”, the “% S” value [13] was 76.3% and the MIC50 [13] was 0.06 µg/mL. For the same molecule, the MIC90 [13] was 1 µg/mL.
For `CCC[C@@H]1C[C@@H](C(=O)N[C@@H]([C@H]2O[C@H](SC)[C@H](O)[C@@H](O)[C@H]2O)[C@H](C)Cl)N(C)C1` [Clindamycin], the MIC50 [14] was at most 0.03 µg/mL, the MIC90 [14] was over 8 µg/mL and the “% S (percent of susceptible isolates)” value ([14]; Bacteroides fragilis (N = 20)) was 65.0%. The MIC50 [14, 32] was 2 µg/mL (≈ 4.71 µM), the MIC90 [14, 33] was over 8 µg/mL and the “MIC Range” value [14, 34] was 0.06 to 4 µg/mL. For the same molecule, the “% S (percent of susceptible isolates)” value [14, 34] was 85.7%, the MIC50 [14, 35] was 2 µg/mL (≈ 4.71 µM) and the MIC90 [14, 35] was 4 µg/mL (≈ 9.41 µM). The MIC50 ([14]; Cutibacterium acnes) was 0.06 µg/mL (≈ 0.141 µM), the MIC90 ([14]; Cutibacterium acnes) was 0.12 µg/mL (≈ 0.282 µM) and the “MIC Range” value ([14]; Fusobacterium spp. (N = 21)) was 0.06 to 8 µg/mL. For the same molecule, the “% S (percent of susceptible isolates)” value ([14]; Fusobacterium spp. (N = 21)) was 95.2%, the MIC50 [14, 36] was 0.06 µg/mL (≈ 0.141 µM) and the MIC90 [14, 37] was 2 µg/mL (≈ 4.71 µM). For the same molecule, the “% S (percent of susceptible isolates)” value ([14]; Prevotella spp. (N = 20)) was 85.0%, the “MIC Range” value [14, 38] was “≦0.03-2 μg/mL” and the “% S (percent of susceptible isolates)” value [14, 38] was 100.0%.
For `CC(C)(O/N=C(\C(=O)N[C@@H]1C(=O)N2C(C(=O)[O-])=C(C[n+]3ccccc3)CS[C@H]12)c1csc(N)n1)C(=O)O` [Ceftazidime], the “% S” value [15] was 100.0%, the MIC50 [15] was 0.12 µg/mL (≈ 0.22 µM) and the MIC90 [15] was 0.5 µg/mL (≈ 0.915 µM). For the same molecule, the “MIC Range” value [15] was 0.06 to 4 µg/mL, the “% S” value [16] was 100.0% and the MIC50 [16] was 0.12 µg/mL (≈ 0.22 µM). The MIC90 [16] was 0.5 µg/mL (≈ 0.915 µM), the “MIC Range” value [16] was 0.03 to 1 µg/mL and the “% S” value [17] was 82.4%. For the same molecule, the MIC50 [17] was 0.12 µg/mL (≈ 0.22 µM) and the MIC90 [17] was 16 µg/mL (≈ 29.3 µM).
`Cc1ncc([N+](=O)[O-])n1CCO` [Metronidazole] was tested, and the MIC50 [14] was 4 µg/mL (≈ 23.4 µM), the MIC90 [14] was 4 µg/mL (≈ 23.4 µM) and the “MIC Range” value ([14]; Bacteroides fragilis (N = 20)) was 2-2 μg/mL. The “% S (percent of susceptible isolates)” value ([14]; Bacteroides fragilis (N = 20)) was 100.0%, the MIC50 [14, 32] was 2 µg/mL (≈ 11.7 µM) and the MIC90 [14, 33] was 2 µg/mL (≈ 11.7 µM). The “MIC Range” value [14, 34] was 1 to 4 µg/mL, the “% S (percent of susceptible isolates)” value [14, 34] was 100.0% and the MIC50 [14, 35] was 2 µg/mL (≈ 11.7 µM). It also gave an MIC90 [14, 35] of 4 µg/mL (≈ 23.4 µM), an MIC50 ([14]; Cutibacterium acnes) of over 16 µg/mL and an MIC90 ([14]; Cutibacterium acnes) of over 16 µg/mL. The “MIC Range” value ([14]; Fusobacterium spp. (N = 21)) was “≦0.12-2 μg/mL”, the “% S (percent of susceptible isolates)” value ([14]; Fusobacterium spp. (N = 21)) was 100.0% and the MIC50 [14, 36] was 0.25 µg/mL (≈ 1.46 µM). For the same molecule, the MIC90 [14, 37] was 1 µg/mL (≈ 5.84 µM), the “MIC Range” value ([14]; Prevotella spp. (N = 20)) was 0.25 to 8 µg/mL and the “% S (percent of susceptible isolates)” value ([14]; Prevotella spp. (N = 20)) was 100.0%. The “% S (percent of susceptible isolates)” value [14, 38] was 0.0%.
